Experimental data taken from PubChem BioAssay (NCI).
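Protocol summary: plate cells (96-well), add compound at 5 concentrations, incubate 48 h, interpolate endpoints linearly. The concentration for full growth arrest is given as TGI.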 Where a SMILES comes first, the peptide text is derived from it. The star is where a group is joined. Bn = c1ccc(C*)cc1

What was measured:
Experiment in all cases: inhibition of tumour cell growth, NCI panel, 48 h
A498 renal = tested on: A498 renal
MDA-MB-435 = tested on: MDA-MB-435
786-0 renal = tested on: 786-0 renal
NCI-H226 lung = tested on: NCI-H226 lung
UACC-62 melanoma = tested on: UACC-62 melanoma
OVCAR-3 ovarian = tested on: OVCAR-3 ovarian
SW-620 colon = tested on: SW-620 colon
NCI-H460 lung = tested on: NCI-H460 lung
NCI-H23 lung = tested on: NCI-H23 lung
CCRF-CEM leukemia = tested on: CCRF-CEM leukemia

Compound	TGI (A498 renal)	TGI (MDA-MB-435)	TGI (786-0 renal)	TGI (NCI-H226 lung)	TGI (UACC-62 melanoma)	TGI (OVCAR-3 ovarian)	TGI (SW-620 colon)	TGI (NCI-H460 lung)	TGI (NCI-H23 lung)	TGI (CCRF-CEM leukemia)
CCOC(=O)[C@@H]1ON2O[C@@H](OC3CCCC3(c3ccccc3)c3ccccc3)C[C@H]3OC(=O)[C@@H]1C32 (stereo not given in full)	> 100 µM	34.2 µM	79 µM	> 100 µM	42.2 µM	54.1 µM	64.5 µM	> 100 µM	37.2 µM	64.8 µM
COC(=O)C(CC(C)C)NC(=O)C(N)Cc1ccc(OCc2ccccc2)cc1 (stereo not given) (H-Tyr(Bn)-Leu-OMe; configuration not given here)	> 10 µM	> 10 µM	> 10 µM	> 10 µM	> 10 µM	> 10 µM	> 10 µM	> 10 µM	> 10 µM	> 10 µM
O=C(O)c1c2c(cc3c1CC1(Cc4ccccc4C1=O)C3)CCC2 (stereo not given)	96 µM	16 µM	> 100 µM	> 85.8 µM	> 100 µM	> 100 µM	> 100 µM	> 100 µM	> 100 µM	33.9 µM
N#CCCN(CCC#N)c1ccc(/C=C2\SC(=S)NC2=O)cc1Br	> 100 µM	> 100 µM	> 100 µM	> 100 µM	> 100 µM	> 100 µM	> 100 µM	> 100 µM	> 100 µM	> 100 µM
N#CC(=N)c1ncn(-c2ccccc2N)c1N	> 100 µM	> 100 µM	> 100 µM	> 100 µM	> 100 µM	> 100 µM	> 100 µM	> 100 µM	> 100 µM	> 100 µM
O=C1CC(Sc2nc3ccc(I)cc3c(=O)n2Cc2ccccc2)C(=O)NN1 (stereo not given)	29.7 µM	33.9 µM	28.4 µM	25.2 µM	29.3 µM	31.2 µM	35.2 µM	57.2 µM	30.1 µM	24.1 µM
COc1cc2c(cc1OC)C13CC[N+]4(C)CC5=CCOC6CC(=O)N2C1C6C5CC34[O-] (stereo not given)	> 100 µM	> 100 µM	> 100 µM	> 100 µM	> 100 µM	> 100 µM	> 100 µM	> 100 µM	> 100 µM	> 100 µM
COC(=O)C1OC(O[C@H]2CC[C@]3(C)[C@H]4CC=C5[C@@H]6CC(C)(C)CC[C@]6(C(=O)OC6OCC(O)C(O)C6OC6OC(C)C(OC7OCC(OC8OCC(O)C(O)C8O)C(O)C7O)C(O)C6O)[C@H](O)C[C@@]5(C)[C@]4(C)CC[C@H]3C2(C)C)C(O)C(O)C1O (stereo not given in full)	3.94 µM	3.58 µM	20.2 µM	6.23 µM	10.6 µM	20.9 µM	11.8 µM	32.5 µM	6.53 µM	> 100 µM
c1ccc(-c2cnc(-c3ccc(-c4ncc(-c5ccccc5)o4)cc3)o2)cc1	> 100 µM	> 100 µM	> 100 µM	> 100 µM	> 100 µM	> 100 µM	> 100 µM	> 100 µM	> 100 µM	> 100 µM
CC(C)CCn1nc(N)c2nc3ccccc3nc21	> 100 µM	> 100 µM	> 100 µM	> 100 µM	> 100 µM	> 100 µM	> 100 µM	> 100 µM	> 100 µM	> 100 µM
COP(=O)(OC)C12CCOCCN1c1ccccc1C2=O (stereo not given)	> 100 µM	> 100 µM	> 100 µM	> 100 µM	> 100 µM	> 100 µM	> 100 µM	> 100 µM	> 100 µM	> 100 µM
C=C1C(=O)OC2/C=C(/C)C3(O)OC(C)(CC(OC(=O)C(C)C)C12)CC3OC(C)=O (stereo not given)	15.5 µM	> 43.8 µM	> 100 µM	> 87 µM	31.6 µM	29.8 µM	> 45.1 µM	25 µM	18.6 µM	> 25.5 µM
Cc1cc2nc(-c3cc(C(C)(C)C)c(O)c(C(C)(C)C)c3)[nH]c2cc1C	> 100 µM	> 100 µM	2.73 µM	> 100 µM	2.74 µM	> 100 µM	13.5 µM	> 100 µM	> 100 µM	5.71 µM
COC(=O)c1cc2c(cc1CC(Cc1ccc3c(c1)CCC3)C(=O)OC)CCC2 (stereo not given)	> 100 µM	> 100 µM	> 100 µM	> 100 µM	> 100 µM	> 100 µM	> 100 µM	> 100 µM	> 100 µM	> 100 µM
COc1c(O)c(O)cc2c1-c1ccc(OC)c(=O)cc1C(NC(C)=O)CC2 (stereo not given)	89 µM	3.75 µM	74.8 µM	70.2 µM	24.8 µM	5.77 µM	63.3 µM	50.9 µM	34.2 µM	40.2 µM
CC(C)(C)c1ccc(OCC(=O)O)c(Cl)c1	> 100 µM	> 100 µM	> 100 µM	> 100 µM	> 100 µM	> 100 µM	> 100 µM	> 100 µM	> 100 µM	> 100 µM
Nc1nc(Nc2ccc(Cl)cc2)sc1C(=O)c1cccs1	72.9 µM	> 100 µM	> 100 µM	75.3 µM	> 100 µM	72.1 µM	> 100 µM	> 100 µM	> 100 µM	> 100 µM
COC(=O)c1cc(C)ccc1CC(Cc1ccc(C)cc1)C(=O)OC (stereo not given)	> 100 µM	> 100 µM	> 100 µM	> 100 µM	> 100 µM	> 100 µM	> 100 µM	> 100 µM	> 100 µM	> 100 µM
COC(=O)C1(Cc2ccc3c(c2)CCC3)Cc2cc3c(cc2C1)CCC3	> 100 µM	> 100 µM	> 100 µM	> 100 µM	> 100 µM	> 100 µM	> 100 µM	> 100 µM	> 100 µM	47.8 µM
Cc1c(C#N)c(N)n(C2OCC(O)C(O)C2O)c(=S)c1C#N (stereo not given)	> 100 µM	> 100 µM	> 100 µM	> 100 µM	> 100 µM	> 100 µM	> 100 µM	> 100 µM	> 100 µM	> 100 µM
COC(=O)C1=C(C)NC(C)=C([N+](=O)[O-])C1c1cccc(N=O)c1 (stereo not given)	58.4 µM	25.4 µM	27.2 µM	63.4 µM	29 µM	28.6 µM	13.3 µM	31.1 µM	33.5 µM	> 100 µM
c1ccc(C2=Nn3c(CCCCCCCCc4nnc5n4N=C(c4ccccc4)CS5)nnc3SC2)cc1	> 96.1 µM	> 100 µM	33.2 µM	> 100 µM	> 100 µM	> 100 µM	> 100 µM	> 100 µM	> 100 µM	> 59.7 µM
COc1ccc(N=Nc2c3c(c(O)c4ccccc24)CCC(C)(C)O3)cc1	32 µM	32.4 µM	73.8 µM	> 100 µM	28.6 µM	33.2 µM	> 100 µM	29.8 µM	34.4 µM	41.7 µM
O=C(O)c1ccc2c(c1)CC1(C2)Cc2cc3c(cc2C1=O)CCC3 (stereo not given)	> 100 µM	> 100 µM	> 100 µM	> 100 µM	> 100 µM	> 100 µM	> 100 µM	> 100 µM	> 100 µM	> 100 µM
CC/C(Cl)=N\OC(=O)Nc1ccc(F)c([N+](=O)[O-])c1	39.4 µM	33.5 µM	26.8 µM	> 100 µM	35.8 µM	18.3 µM	33.6 µM	> 100 µM	35.6 µM	> 20 µM
COc1ccc(N=C2C(=S)N(c3ccc(OC)cc3)/C(=N/S(=O)(=O)c3ccccc3)N2c2ccccc2)cc1	> 100 µM	20.6 µM	19.7 µM	38.7 µM	16.2 µM	18.1 µM	16.3 µM	> 73.2 µM	29 µM	> 100 µM
